Experimental data taken from PubChem BioAssay (NCI).
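96-well plates; 48 h exposure; 5 concentrations. Endpoints by linear interpolation between flanking doses. Not reached: highest tested concentration assigned. The concentration for full growth arrest is given as TGI.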

Assays:
Assay in all cases: NCI tumour cell line growth inhibition, 48 h
MCF7 breast = system: MCF7 breast
EKVX NSCLC = system: EKVX NSCLC
SN12C renal = system: SN12C renal
NCI-H23 lung = system: NCI-H23 lung
HT29 colon = system: HT29 colon
PC-3 prostate = system: PC-3 prostate
HCT-15 colon = system: HCT-15 colon
UACC-62 melanoma = system: UACC-62 melanoma
HCC-2998 colon = system: HCC-2998 colon
NCI-H226 lung = system: NCI-H226 lung
MDA-MB-435 = system: MDA-MB-435
SK-OV-3 ovarian = system: SK-OV-3 ovarian
DU-145 prostate = system: DU-145 prostate
SR leukemia = system: SR leukemia
CCRF-CEM leukemia = system: CCRF-CEM leukemia
K-562 leukemia = system: K-562 leukemia
LOX IMVI melanoma = system: LOX IMVI melanoma
SF-539 CNS = system: SF-539 CNS
MALME-3M melanoma = system: MALME-3M melanoma
SNB-19 CNS = system: SNB-19 CNS
M14 melanoma = system: M14 melanoma
UO-31 renal = system: UO-31 renal
MOLT-4 leukemia = system: MOLT-4 leukemia
SW-620 colon = system: SW-620 colon
A498 renal = system: A498 renal
SK-MEL-28 melanoma = system: SK-MEL-28 melanoma
SK-MEL-5 melanoma = system: SK-MEL-5 melanoma
OVCAR-4 ovarian = system: OVCAR-4 ovarian
786-0 renal = system: 786-0 renal
NCI-H460 lung = system: NCI-H460 lung
HOP-62 NSCLC = system: HOP-62 NSCLC
RPMI-8226 leukemia = system: RPMI-8226 leukemia
UACC-257 melanoma = system: UACC-257 melanoma
TK-10 renal = system: TK-10 renal
KM12 colon = system: KM12 colon
RXF 393 renal = system: RXF 393 renal
NCI/ADR-RES ovarian = system: NCI/ADR-RES ovarian
COLO 205 colon = system: COLO 205 colon
HOP-92 NSCLC = system: HOP-92 NSCLC
SNB-75 CNS = system: SNB-75 CNS
SF-295 CNS = system: SF-295 CNS
MDA-MB-231 breast = system: MDA-MB-231 breast
IGROV1 ovarian = system: IGROV1 ovarian
T-47D breast = system: T-47D breast
OVCAR-8 ovarian = system: OVCAR-8 ovarian
HS 578T breast = system: HS 578T breast
MDA-N = system: MDA-N
OVCAR-3 ovarian = system: OVCAR-3 ovarian
OVCAR-5 ovarian = system: OVCAR-5 ovarian
HCT-116 colon = system: HCT-116 colon
SF-268 CNS = system: SF-268 CNS
U251 CNS = system: U251 CNS
BT-549 breast = system: BT-549 breast
CAKI-1 renal = system: CAKI-1 renal
A549 NSCLC = system: A549 NSCLC
SK-MEL-2 melanoma = system: SK-MEL-2 melanoma
ACHN renal = system: ACHN renal
NCI-H522 lung = system: NCI-H522 lung
HL-60(TB) leukemia = system: HL-60(TB) leukemia

CCCC1NC(=O)C(CC(C)C)NC(=O)c2cccc(n2)C(=O)NC(CC(C)C)C(=O)NC(CCC)C(=O)NC(C(=O)OC)CCCCNC1=O (stereo not given) gave a TGI (MCF7 breast) of over 100 µM, a TGI (EKVX NSCLC) of 90.9 µM and a TGI (SN12C renal) of over 100 µM. For the same compound, the TGI (NCI-H23 lung) was over 100 µM, the TGI (HT29 colon) was 94.5 µM and the TGI (PC-3 prostate) was 91.3 µM. The TGI (HCT-15 colon) was over 100 µM, the TGI (UACC-62 melanoma) was 51.5 µM and the TGI (HCC-2998 colon) was 41.7 µM. The TGI (NCI-H226 lung) was 71.4 µM, the TGI (MDA-MB-435) was over 100 µM and the TGI (SK-OV-3 ovarian) was 91.5 µM. For the same compound, the TGI (DU-145 prostate) was over 100 µM, the TGI (SR leukemia) was 65.6 µM and the TGI (CCRF-CEM leukemia) was 36.6 µM. It also gave a TGI (K-562 leukemia) of 53.7 µM, a TGI (LOX IMVI melanoma) of 44.4 µM and a TGI (SF-539 CNS) of 45.1 µM. It also gave a TGI (MALME-3M melanoma) of 62.8 µM, a TGI (SNB-19 CNS) of over 100 µM and a TGI (M14 melanoma) of over 100 µM. It also gave a TGI (UO-31 renal) of over 100 µM, a TGI (MOLT-4 leukemia) of 44.8 µM and a TGI (SW-620 colon) of over 100 µM. For the same compound, the TGI (A498 renal) was over 100 µM, the TGI (SK-MEL-28 melanoma) was 78.9 µM and the TGI (SK-MEL-5 melanoma) was over 100 µM. For the same compound, the TGI (OVCAR-4 ovarian) was over 100 µM, the TGI (786-0 renal) was over 100 µM and the TGI (NCI-H460 lung) was over 100 µM. It also gave a TGI (HOP-62 NSCLC) of over 100 µM, a TGI (RPMI-8226 leukemia) of 32 µM and a TGI (UACC-257 melanoma) of over 100 µM. It also gave a TGI (TK-10 renal) of over 100 µM, a TGI (KM12 colon) of 59.3 µM and a TGI (RXF 393 renal) of over 100 µM. It also gave a TGI (NCI/ADR-RES ovarian) of over 100 µM, a TGI (COLO 205 colon) of over 100 µM and a TGI (HOP-92 NSCLC) of 65.9 µM. The TGI (SNB-75 CNS) was 57.7 µM, the TGI (SF-295 CNS) was over 100 µM and the TGI (MDA-MB-231 breast) was 48.9 µM. The TGI (IGROV1 ovarian) was over 100 µM, the TGI (T-47D breast) was over 100 µM and the TGI (OVCAR-8 ovarian) was over 100 µM. The TGI (HS 578T breast) was over 100 µM, the TGI (MDA-N) was over 100 µM and the TGI (OVCAR-3 ovarian) was over 100 µM. It also gave a TGI (OVCAR-5 ovarian) of over 100 µM, a TGI (HCT-116 colon) of over 100 µM and a TGI (SF-268 CNS) of over 100 µM. The TGI (U251 CNS) was over 100 µM, the TGI (BT-549 breast) was 76 µM and the TGI (CAKI-1 renal) was over 100 µM. The TGI (A549 NSCLC) was over 100 µM and the TGI (SK-MEL-2 melanoma) was over 100 µM.
With C[Si](C)(C)C#CCO[Si](C)(C)C the TGI (MCF7 breast) was over 100 µM, the TGI (EKVX NSCLC) was over 100 µM and the TGI (SN12C renal) was over 100 µM. For the same compound, the TGI (NCI-H23 lung) was over 100 µM, the TGI (HT29 colon) was over 100 µM and the TGI (PC-3 prostate) was over 100 µM. It also gave a TGI (HCT-15 colon) of over 100 µM, a TGI (UACC-62 melanoma) of over 100 µM and a TGI (HCC-2998 colon) of over 100 µM. The TGI (NCI-H226 lung) was over 100 µM, the TGI (MDA-MB-435) was over 100 µM and the TGI (SK-OV-3 ovarian) was over 100 µM. The TGI (DU-145 prostate) was over 100 µM, the TGI (SR leukemia) was over 61.5 µM and the TGI (CCRF-CEM leukemia) was over 64 µM. For the same compound, the TGI (K-562 leukemia) was over 100 µM, the TGI (LOX IMVI melanoma) was 19.9 µM and the TGI (SF-539 CNS) was 52.3 µM. For the same compound, the TGI (ACHN renal) was over 100 µM, the TGI (MALME-3M melanoma) was over 100 µM and the TGI (SNB-19 CNS) was over 100 µM. For the same compound, the TGI (M14 melanoma) was over 100 µM, the TGI (UO-31 renal) was over 100 µM and the TGI (MOLT-4 leukemia) was 58.4 µM. It also gave a TGI (SW-620 colon) of over 100 µM, a TGI (A498 renal) of over 100 µM and a TGI (SK-MEL-28 melanoma) of over 100 µM. The TGI (SK-MEL-5 melanoma) was over 100 µM, the TGI (OVCAR-4 ovarian) was over 100 µM and the TGI (786-0 renal) was over 78.8 µM. It also gave a TGI (NCI-H460 lung) of over 100 µM, a TGI (HOP-62 NSCLC) of over 100 µM and a TGI (RPMI-8226 leukemia) of over 79.8 µM. It also gave a TGI (UACC-257 melanoma) of over 100 µM, a TGI (TK-10 renal) of over 100 µM and a TGI (KM12 colon) of over 89.3 µM. It also gave a TGI (NCI-H522 lung) of 29.9 µM, a TGI (RXF 393 renal) of over 100 µM and a TGI (NCI/ADR-RES ovarian) of over 100 µM. The TGI (COLO 205 colon) was over 100 µM, the TGI (HOP-92 NSCLC) was 44.3 µM and the TGI (SNB-75 CNS) was over 100 µM. It also gave a TGI (HL-60(TB) leukemia) of over 61 µM, a TGI (SF-295 CNS) of over 100 µM and a TGI (MDA-MB-231 breast) of over 92.6 µM. It also gave a TGI (IGROV1 ovarian) of 36.8 µM, a TGI (T-47D breast) of over 100 µM and a TGI (OVCAR-8 ovarian) of over 100 µM. For the same compound, the TGI (HS 578T breast) was over 100 µM, the TGI (MDA-N) was over 100 µM and the TGI (OVCAR-3 ovarian) was over 100 µM. It also gave a TGI (OVCAR-5 ovarian) of over 100 µM, a TGI (HCT-116 colon) of over 100 µM and a TGI (SF-268 CNS) of over 89.3 µM. For the same compound, the TGI (U251 CNS) was over 100 µM, the TGI (BT-549 breast) was over 100 µM and the TGI (CAKI-1 renal) was over 100 µM. For the same compound, the TGI (A549 NSCLC) was over 100 µM and the TGI (SK-MEL-2 melanoma) was over 100 µM.
